Biological target: α4β7 integrin (Homo sapiens (Human), UniProt P13612+P26010)
Assay: α4β7 Integrin Cell Capture Assay
Type: cell-based
[1] = Table 1, capture of α4β7 expressing RPM18866 cells on MadCAM-1 extracellular domain-coated plate
[2] = Table 2, capture of α4β7 expressing RPM18866 cells on MadCAM-1 extracellular domain-coated plate
[3] = RPMI8866 cells captured on MadCAM-1 extracellular domain-coated plate

Chain of α4β7 integrin (P13612 34-1032): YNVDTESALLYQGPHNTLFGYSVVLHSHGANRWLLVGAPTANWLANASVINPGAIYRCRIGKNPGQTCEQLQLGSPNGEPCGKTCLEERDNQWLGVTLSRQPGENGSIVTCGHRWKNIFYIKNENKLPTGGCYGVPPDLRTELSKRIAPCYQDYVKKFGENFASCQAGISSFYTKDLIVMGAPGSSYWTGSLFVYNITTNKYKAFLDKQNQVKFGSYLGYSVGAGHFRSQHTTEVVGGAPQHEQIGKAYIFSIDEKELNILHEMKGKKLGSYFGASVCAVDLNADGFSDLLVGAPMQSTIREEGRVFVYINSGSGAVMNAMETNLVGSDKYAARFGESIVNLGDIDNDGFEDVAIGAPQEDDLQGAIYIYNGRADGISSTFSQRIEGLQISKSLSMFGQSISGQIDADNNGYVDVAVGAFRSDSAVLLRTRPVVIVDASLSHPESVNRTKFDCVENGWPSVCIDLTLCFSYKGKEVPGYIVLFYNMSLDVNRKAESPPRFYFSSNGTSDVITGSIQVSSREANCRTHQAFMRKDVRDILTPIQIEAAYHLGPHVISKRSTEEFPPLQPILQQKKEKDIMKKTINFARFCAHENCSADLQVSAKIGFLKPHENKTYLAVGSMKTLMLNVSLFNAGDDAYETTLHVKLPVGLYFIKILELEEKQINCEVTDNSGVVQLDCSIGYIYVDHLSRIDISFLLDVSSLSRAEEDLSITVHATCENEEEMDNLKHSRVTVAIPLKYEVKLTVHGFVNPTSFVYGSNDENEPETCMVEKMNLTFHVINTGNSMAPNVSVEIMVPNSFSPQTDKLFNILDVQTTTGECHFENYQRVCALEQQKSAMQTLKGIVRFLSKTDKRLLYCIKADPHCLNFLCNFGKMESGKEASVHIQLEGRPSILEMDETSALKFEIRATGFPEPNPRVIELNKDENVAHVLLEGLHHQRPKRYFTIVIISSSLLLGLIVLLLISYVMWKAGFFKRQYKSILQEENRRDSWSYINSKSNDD
Chain of α4β7 integrin (P26010 20-798): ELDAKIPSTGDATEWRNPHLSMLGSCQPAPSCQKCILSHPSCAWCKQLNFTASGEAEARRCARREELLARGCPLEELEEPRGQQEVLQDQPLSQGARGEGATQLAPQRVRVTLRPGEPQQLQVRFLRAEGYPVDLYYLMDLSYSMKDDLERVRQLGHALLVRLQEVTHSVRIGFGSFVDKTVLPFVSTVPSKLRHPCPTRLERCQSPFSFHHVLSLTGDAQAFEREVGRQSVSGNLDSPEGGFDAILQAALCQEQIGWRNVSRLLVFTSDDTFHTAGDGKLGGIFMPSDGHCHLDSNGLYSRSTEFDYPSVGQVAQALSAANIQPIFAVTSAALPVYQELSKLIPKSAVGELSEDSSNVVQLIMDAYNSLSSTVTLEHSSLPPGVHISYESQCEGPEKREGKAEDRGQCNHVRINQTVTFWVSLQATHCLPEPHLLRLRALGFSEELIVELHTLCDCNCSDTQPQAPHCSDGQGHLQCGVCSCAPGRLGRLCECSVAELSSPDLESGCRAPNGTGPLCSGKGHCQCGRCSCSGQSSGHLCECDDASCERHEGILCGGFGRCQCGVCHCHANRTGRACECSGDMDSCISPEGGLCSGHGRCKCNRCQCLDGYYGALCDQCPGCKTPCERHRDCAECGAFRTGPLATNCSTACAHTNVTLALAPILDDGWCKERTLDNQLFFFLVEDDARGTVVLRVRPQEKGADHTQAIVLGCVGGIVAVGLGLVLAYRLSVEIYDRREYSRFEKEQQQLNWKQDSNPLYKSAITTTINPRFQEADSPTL

| EC50 [1] | EC50 [2] | SMILES | also measured |
| --- | --- | --- | --- |
| 2.4 nM | – | N#Cc1ccc(-c2ccc(C[C@H](NC(=O)c3c(F)cc(NS(=O)(=O)c4ccc(-c5ccnc(F)c5)cc4)cc3F)C(=O)O)c3cccnc23)c(Cl)c1 [Example 47, (S)-3-(8-(2-chloro-4-cyanophenyl)quinolin-5-yl)-2-(2,6-difluoro-4-((4-(2-fluoropyridin-4-yl)phenyl)sulfonamido)benzamido)propanoic acid] | – |
| – | 0.6 nM | CC[C@@H](Nc1cc(F)c(C(=O)N[C@@H](Cc2ccc(-c3c(OC)cc(C)n(C)c3=O)c3ncccc23)C(=O)O)c(F)c1)C(F)(F)F [Example 341] | – |
| – | 77.9 nM | O=C(N[C@@H](Cc1ccc(NC(=O)c2c(Cl)cccc2Cl)c2ncccc12)C(=O)O)c1c(F)cccc1F [Example 239] | – |
| – | 53.5 nM | C[C@H](NC(=O)c1cc(F)c(C(=O)N[C@@H](Cc2ccc(-c3ccc(C#N)cc3Cl)c3ncccc23)C(=O)O)c(F)c1)c1ccccc1 [Example 162] | – |
| 6.2 nM | – | O=C(N[C@@H](Cc1ccc(-c2ncc3ccccc3c2C(F)(F)F)c2ncc(F)cc12)C(=O)O)c1c(Cl)cccc1Cl [Example 35, (S)-2-(2,6-dichlorobenzamido)-3-(3-fluoro-8-(4-(trifluoromethyl)isoquinolin-3-yl)quinolin-5-yl)propanoic acid] | – |
| – | 4.1 nM | CC[C@@H](Nc1cc(F)c(C(=O)N[C@@H](Cc2ccc(-c3ccc(F)c4cccnc34)c3ncccc23)C(=O)O)c(F)c1)C(F)(F)F [Example 264] | – |
| – | 1.9 nM | C[C@@H](Nc1cc(F)c(C(=O)N[C@@H](Cc2ccc(-c3cn(C)c(=O)n(C)c3=O)c3ncccc23)C(=O)O)c(F)c1)C(F)(F)F [Example 211] | – |
| 25.1 nM | – | COc1cc2ccccc2cc1-c1ccc(C[C@H](NC(=O)c2c(F)cccc2F)C(=O)O)c2cccnc12 [Example 9, (S)-2-(2,6-difluorobenzamido)-3-(8-(3-methoxynaphthalen-2-yl)quinolin-5-yl)propanoic acid] | – |
| 18.1 nM | – | N#Cc1ccc(-c2ccc(C[C@H](NC(=O)c3c(F)cc(N4CCS(=O)(=O)CC4)cc3F)C(=O)O)c3cccnc23)c(Cl)c1 [Example 80, (S)-3-(8-(2-chloro-4-cyanophenyl)quinolin-5-yl)-2-(4-(1,1-dioxidothiomorpholino)-2,6-difluorobenzamido)propanoic acid] | – |
| 0.3 nM | – | CC[C@@H](Nc1cc(F)c(C(=O)N[C@@H](Cc2ccc(-c3cc4ccncc4n(C)c3=O)c3ncccc23)C(=O)O)c(F)c1)C(F)(F)F [Example 110, (S)-2-(2,6-difluoro-4-(((R)-1,1,1-trifluorobutan-2-yl)amino)benzamido)-3-(8-(1-methyl-2-oxo-1,2-dihydro-1,7-naphthyridin-3-yl)quinolin-5-yl)propanoic acid] | – |
| – | 4 nM | Cc1ccnc(-c2ccc(C[C@H](NC(=O)c3c(F)cc(N4CCOC[C@@H]4C(F)(F)F)cc3F)C(=O)O)c3cccnc23)n1 [Example 263] | – |
| – | 47.3 nM | C[C@H](O)Cc1cc(F)c(C(=O)N[C@@H](Cc2ccc(-c3ccc(C#N)cc3Cl)c3ncccc23)C(=O)O)c(F)c1 [Example 286] | – |
| – | 57.8 nM | N#Cc1ccc(-c2ccc(C[C@H](NC(=O)c3c(Cl)cc4cc(C5CC5)[nH]c4c3Cl)C(=O)O)c3cccnc23)c(Cl)c1 [Example 228] | – |
| 0.5 nM | – | Cn1c(=O)c(-c2ccc(C[C@H](NC(=O)c3c(F)cc(N4CCOC[C@@H]4C(F)(F)F)cc3F)C(=O)O)c3cccnc23)cc2ccccc21 [Example 104, (S)-2-(2,6-difluoro-4-((R)-3-(trifluoromethyl)morpholino)benzamido)-3-(1-methyl-2-oxo-1,2-dihydro-[3,8′-biquinolin]-5′-yl)propanoic acid] | – |
| 3.7 nM | – | Cn1c(=O)c(-c2ccc(C[C@H](NC(=O)c3c(F)cccc3F)C(=O)O)c3cccnc23)cc2ccccc21 [Example 14, (S)-2-(2,6-difluorobenzamido)-3-(1-methyl-2-oxo-1,2-dihydro-[3,8′-biquinolin]-5′-yl)propanoic acid] | – |
| 67.4 nM | – | N#Cc1ccc(-c2ccc(C[C@H](NC(=O)c3c(F)ccc(OC(F)F)c3F)C(=O)O)c3cccnc23)c(Cl)c1 [Example 16, (S)-3-(8-(2-chloro-4-cyanophenyl)quinolin-5-yl)-2-(3-(difluoromethoxy)-2,6-difluorobenzamido)propanoic acid] | – |
| – | 97.1 nM | N#Cc1ccc(-c2ccc(C[C@H](NC(=O)c3c(F)cc(O[C@H](c4ccccc4)C(F)(F)F)cc3F)C(=O)O)c3cccnc23)c(Cl)c1 [Example 175] | – |
| – | 2.3 nM | CCOCc1cc(OC)c(-c2ccc(C[C@H](NC(=O)c3c(Cl)cc4[nH]ccc4c3Cl)C(=O)O)c3cccnc23)c(OC)c1 [Example 235] | – |
| 27.4 nM | – | Cc1noc(C)c1-c1ccc(C[C@H](NC(=O)c2c(F)cc(NS(=O)(=O)c3ccc(-c4ccnc(F)c4)cc3)cc2F)C(=O)O)c2cccnc12 [Example 55, (S)-2-(2,6-difluoro-4-((4-(2-fluoropyridin-4-yl)phenyl)sulfonamido)benzamido)-3-(8-(3,5-dimethylisoxazol-4-yl)quinolin-5-yl)propanoic acid] | – |

The remaining lines, values behind:

| SMILES | EC50 [1] | EC50 [2] | also measured |
| --- | --- | --- | --- |
| Cc1cc(C(F)(F)F)c(-c2ccc(C[C@H](NC(=O)c3c(F)cc(N4CCO[C@@H](C(F)(F)F)C4)cc3F)C(=O)O)c3cccnc23)c(=O)n1C [Example 447] | – | – | EC50 [3]: 0.271 nM |
| CN(C)c1ccnc(-c2ccc(C[C@H](NC(=O)c3c(F)cc(N4CCOC[C@@H]4C(F)(F)F)cc3F)C(=O)O)c3cccnc23)c1C(F)(F)F [Example 105, (S)-2-(2,6-difluoro-4-((R)-3-(trifluoromethyl)morpholino)benzamido)-3-(8-(4-(dimethylamino)-3-(trifluoromethyl)pyridin-2-yl)quinolin-5-yl)propanoic acid] | 4.1 nM | – | – |
| CC[C@@H](Nc1cc(F)c(C(=O)N[C@@H](Cc2ccc(-c3c(C(F)(F)F)ccc4cccnc34)c3ncccc23)C(=O)O)c(F)c1)C(F)(F)F [Example 290] | – | 6.5 nM | – |
| Cc1cc(N2CCOC[C@@H]2C(F)(F)F)cc(F)c1C(=O)N[C@@H](Cc1ccc(-n2c(=O)[nH]c3cnccc3c2=O)c2ncccc12)C(=O)O [Example 421] | – | – | EC50 [3]: 0.191 nM |
| Cc1cc(C(F)(F)F)c(-c2ccc(C[C@H](NC(=O)c3c(F)cc(N4CCOC[C@@H]4C(F)(F)F)cc3C(C)C)C(=O)O)c3cccnc23)c(=O)n1C [Example 470] | – | – | EC50 [3]: 0.181 nM |
| CC[C@@H](Nc1cc(F)c(C(=O)N[C@@H](Cc2ccc(-c3c(C(F)(F)F)c4c(n(C)c3=O)CCC4)c3ncccc23)C(=O)O)c(F)c1)C(F)(F)F [Example 126, (S)-2-(2,6-difluoro-4-(((R)-1,1,1-trifluorobutan-2-yl)amino)benzamido)-3-(8-(1-methyl-2-oxo-4-(trifluoromethyl)-2,5,6,7-tetrahydro-1H-cyclopenta[b]pyridin-3-yl)quinolin-5-yl)propanoic acid] | 0.6 nM | – | – |
| Cc1cc(C(F)(F)F)c(-c2ccc(C[C@H](NC(=O)c3c(F)cc(N4CCOC5(COC5)C4)cc3F)C(=O)O)c3cccnc23)c(=O)n1C [Example 459] | – | – | EC50 [3]: 2.07 nM |
| Cn1c2c(cc(-c3ccc(C[C@H](NC(=O)c4c(F)cc(N5CCOC[C@@H]5C(F)(F)F)cc4F)C(=O)O)c4cccnc34)c1=O)CNCC2 [Example 438] | – | – | EC50 [3]: 0.291 nM |
| Cc1cc(N2CCOC[C@@H]2C(F)(F)F)cc(F)c1C(=O)N[C@@H](Cc1ccc(-c2c(C)c(C(F)(F)F)cn(C)c2=O)c2ncccc12)C(=O)O [Example 457] | – | – | EC50 [3]: 0.238 nM |
| CC[C@@H](Nc1cc(F)c(C(=O)N[C@@H](Cc2ccc(-c3cc(C(F)(F)F)cn(C)c3=O)c3ncccc23)C(=O)O)c(F)c1)C(F)(F)F [Example 210] | – | 1.9 nM | – |
| Cc1ccnc(-c2ccc(C[C@H](NC(=O)c3c(F)cc(N4CCOC[C@@H]4C(F)(F)F)cc3F)C(=O)O)c3cccnc23)c1C(F)(F)F [Example 223] | – | 2.2 nM | – |
| Cc1cc(N2CCOC[C@@H]2C(F)(F)F)cc(F)c1C(=O)N[C@@H](Cc1ccc(-c2c(C)nc(C)n(C)c2=O)c2ncccc12)C(=O)O [Example 460] | – | – | EC50 [3]: 0.15 nM |
| CC[C@@H](Nc1cc(F)c(C(=O)N[C@@H](Cc2ccc(-c3nccc(OC)c3C(F)(F)F)c3ncccc23)C(=O)O)c(F)c1)C(F)(F)F [Example 92, (S)-2-(2,6-difluoro-4-(((R)-1,1,1-trifluorobutan-2-yl)amino)benzamido)-3-(8-(4-methoxy-3-(trifluoromethyl)pyridin-2-yl)quinolin-5-yl)propanoic acid] | 2 nM | – | – |
| CC[C@@H](Nc1cc(F)c(C(=O)N[C@@H](Cc2ccc(-c3nc(C)cn(C)c3=O)c3ncccc23)C(=O)O)c(F)c1)C(F)(F)F [Example 209] | – | 1.9 nM | – |
| CCOCc1cc(OC)c(-c2ccc(C[C@H](NC(=O)c3c(F)cc(N[C@H](CC)C(F)(F)F)cc3F)C(=O)O)c3cccnc23)c(OC)c1 [Example 201] | – | 1.5 nM | – |
| Cc1cc(N2CCOC[C@@H]2C(F)(F)F)cc(F)c1C(=O)N[C@@H](Cc1ccc(-n2c(=O)c3cc(F)c(-n4ccnc4)cc3n(C)c2=O)c2ncccc12)C(=O)O [Example 418] | – | – | EC50 [3]: 0.104 nM |
| Cc1cc(N2CCOC[C@@H]2C(F)(F)F)cc(F)c1C(=O)N[C@@H](Cc1ccc(-n2c(=O)c3cnccc3n(C)c2=O)c2ncccc12)C(=O)O [Example 434] | – | – | EC50 [3]: 0.103 nM |
| N#Cc1ccc(-c2ccc(C[C@H](NC(=O)c3c(F)cccc3F)C(=O)O)c3cccnc23)c(Cl)c1 [Example 3, (S)-3-(8-(2-chloro-4-cyanophenyl)quinolin-5-yl)-2-(2,6-difluorobenzamido)propanoic acid] | 63.8 nM | – | – |
